Laboratory results taken from ChEMBL document CHEMBL4184317, “Discovery of Tetrahydroquinoxalines as Bromodomain and Extra-Terminal Domain (BET) Inhibitors with Selectivity for the Second Bromodomain” (J Med Chem, 2018).

Assays:
[1] = biological target: T1, Bromodomain-containing protein 2 (Homo sapiens, UniProt P25440); assay: Inhibition of human BRD2 BD1 after 30 mins by TR-FRET assay
Target sequence in this assay (P25440 whole entry): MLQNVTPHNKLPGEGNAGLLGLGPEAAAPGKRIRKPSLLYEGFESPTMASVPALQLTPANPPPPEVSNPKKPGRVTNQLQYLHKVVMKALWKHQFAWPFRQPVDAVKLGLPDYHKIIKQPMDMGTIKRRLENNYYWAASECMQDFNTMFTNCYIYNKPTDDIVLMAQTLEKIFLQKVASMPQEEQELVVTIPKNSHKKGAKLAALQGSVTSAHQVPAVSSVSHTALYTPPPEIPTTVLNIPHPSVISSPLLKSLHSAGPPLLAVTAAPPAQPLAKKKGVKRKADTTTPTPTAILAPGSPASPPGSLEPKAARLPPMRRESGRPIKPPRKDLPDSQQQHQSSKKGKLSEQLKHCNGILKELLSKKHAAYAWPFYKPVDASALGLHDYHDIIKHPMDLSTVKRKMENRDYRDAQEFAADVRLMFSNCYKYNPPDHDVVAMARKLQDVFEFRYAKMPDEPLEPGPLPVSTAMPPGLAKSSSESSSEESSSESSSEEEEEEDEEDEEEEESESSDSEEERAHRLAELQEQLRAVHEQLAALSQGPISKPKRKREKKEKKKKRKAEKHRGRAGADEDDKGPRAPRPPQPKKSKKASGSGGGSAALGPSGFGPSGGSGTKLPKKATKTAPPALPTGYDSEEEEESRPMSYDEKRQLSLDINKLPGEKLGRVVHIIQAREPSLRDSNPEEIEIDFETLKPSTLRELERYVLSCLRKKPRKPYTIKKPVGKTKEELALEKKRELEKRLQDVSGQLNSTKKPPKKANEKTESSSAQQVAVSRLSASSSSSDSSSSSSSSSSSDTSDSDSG

[2] = biological target: T1, Bromodomain-containing protein 2; assay: Inhibition of human BRD2 BD2 after 30 mins by TR-FRET assay
Target sequence in this assay (P25440 whole entry): as above

[3] = biological target: T2, Bromodomain-containing protein 3 (Homo sapiens, UniProt Q15059); assay: Inhibition of BRD3 BD1 (unknown origin) after 30 mins by TR-FRET assay
Target sequence in this assay (Q15059 whole entry): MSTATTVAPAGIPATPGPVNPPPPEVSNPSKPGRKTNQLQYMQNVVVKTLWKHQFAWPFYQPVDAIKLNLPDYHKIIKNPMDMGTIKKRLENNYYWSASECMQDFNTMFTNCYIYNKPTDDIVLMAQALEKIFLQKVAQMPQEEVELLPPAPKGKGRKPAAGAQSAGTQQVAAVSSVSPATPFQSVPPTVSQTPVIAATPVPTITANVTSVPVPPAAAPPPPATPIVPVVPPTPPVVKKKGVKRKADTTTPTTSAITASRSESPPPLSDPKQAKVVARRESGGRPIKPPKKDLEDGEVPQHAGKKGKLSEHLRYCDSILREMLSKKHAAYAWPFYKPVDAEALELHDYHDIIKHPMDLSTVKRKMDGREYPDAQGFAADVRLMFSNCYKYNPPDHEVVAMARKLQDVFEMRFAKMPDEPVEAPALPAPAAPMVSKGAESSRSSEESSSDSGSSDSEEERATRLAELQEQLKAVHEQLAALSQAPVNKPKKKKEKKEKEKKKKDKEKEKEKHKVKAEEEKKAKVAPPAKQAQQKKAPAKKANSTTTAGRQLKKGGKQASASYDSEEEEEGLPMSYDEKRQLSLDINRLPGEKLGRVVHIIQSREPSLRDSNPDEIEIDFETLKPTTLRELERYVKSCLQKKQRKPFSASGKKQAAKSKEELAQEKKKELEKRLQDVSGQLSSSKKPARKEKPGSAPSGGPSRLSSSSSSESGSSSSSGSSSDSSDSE

[4] = biological target: T2, Bromodomain-containing protein 3; assay: Inhibition of BRD3 BD2 (unknown origin) after 30 mins by TR-FRET assay
Target sequence in this assay (Q15059 whole entry): as above

[5] = biological target: T3, Bromodomain testis-specific protein (Homo sapiens, UniProt Q58F21); assay: Inhibition of BRDT BD2 (unknown origin) after 30 mins by TR-FRET assay
[6] = Permeability of the compound by PAMPA; type: ADME; details: read-out: permeability
[7] = Solubility of the compound in pH 7.4 phosphate buffered saline by chemiluminescent nitrogen detection method; type: physicochemical
Blood = assay: Antiinflammatory activity in human whole blood assessed as inhibition of LPS-induced MCP1 release preincubated for 30 mins followed by LPS challenge measured after 24 hrs by immunoassay; type: functional, tissue-based
[8] = biological target: T4, Bromodomain-containing protein 4 (Homo sapiens, UniProt O60885); assay: Binding affinity to human partial length DNA-tagged BRD4 isoform long BD1 expressed in bacterial by BROMOscan method
[9] = biological target: T1, Bromodomain-containing protein 2; assay: Binding affinity to human partial length DNA-tagged BRD2 isoform 1 BD2 expressed in bacterial by BROMOscan method
Target sequence in this assay (P25440 whole entry): as the sequence (P25440 whole entry) above

[10] = biological target: T2, Bromodomain-containing protein 3; assay: Binding affinity to human partial length DNA-tagged BRD3 BD1 expressed in bacterial by BROMOscan method
Target sequence in this assay (Q15059 whole entry): as the sequence (Q15059 whole entry) above

[11] = biological target: T2, Bromodomain-containing protein 3; assay: Binding affinity to human partial length DNA-tagged BRD3 BD2 expressed in bacterial by BROMOscan method
Target sequence in this assay (Q15059 whole entry): as above

[12] = biological target: T3, Bromodomain testis-specific protein; assay: Binding affinity to human partial length DNA-tagged BRDT isoform b BD1 expressed in bacterial by BROMOscan method
[13] = biological target: T3, Bromodomain testis-specific protein; assay: Binding affinity to human partial length DNA-tagged BRDT isoform b BD2 expressed in bacterial by BROMOscan method
[14] = biological target: Transcription initiation factor TFIID subunit 1 (Homo sapiens, UniProt P21675); assay: Binding affinity to human partial length DNA-tagged TAF1 BD2 expressed in bacterial by BROMOscan method
[15] = biological target: ATPase family AAA domain-containing protein 2 (Homo sapiens, UniProt Q6PL18); assay: Binding affinity to human partial length DNA-tagged ATAD2A expressed in bacterial by BROMOscan method
[16] = biological target: Bromodomain adjacent to zinc finger domain protein 2A (Homo sapiens, UniProt Q9UIF9); assay: Binding affinity to human partial length DNA-tagged BAZ2A expressed in bacterial by BROMOscan method
[17] = biological target: Bromodomain adjacent to zinc finger domain protein 2B (Homo sapiens, UniProt Q9UIF8); assay: Binding affinity to human partial length DNA-tagged BAZ2B expressed in bacterial by BROMOscan method
[18] = biological target: Bromodomain-containing protein 1 (Homo sapiens, UniProt O95696); assay: Binding affinity to human partial length DNA-tagged BRD1 expressed in bacterial by BROMOscan method
[19] = biological target: Bromodomain-containing protein 7 (Homo sapiens, UniProt Q9NPI1); assay: Binding affinity to human partial length DNA-tagged BRD7 expressed in mammalian expression system by BROMOscan method
[20] = biological target: Bromodomain-containing protein 8 (Homo sapiens, UniProt Q9H0E9); assay: Binding affinity to DNA-tagged BRD8 (unknown origin) by BROMOscan method
[21] = biological target: Bromodomain-containing protein 9 (Homo sapiens, UniProt Q9H8M2); assay: Binding affinity to human partial length DNA-tagged BRD9 isoform 1 expressed in bacteria by BROMOscan method
[22] = biological target: Bromodomain and PHD finger-containing protein 3 (Homo sapiens, UniProt Q9ULD4); assay: Binding affinity to human partial length DNA-tagged BRPF3 expressed in bacteria by BROMOscan method
[23] = biological target: Chromatin remodeling regulator CECR2 (Homo sapiens, UniProt Q9BXF3); assay: Binding affinity to human partial length DNA-tagged CECR2 expressed in bacteria by BROMOscan method
CREB-binding protein = CREB-binding protein (Homo sapiens, UniProt Q92793); assay: Binding affinity to human partial length DNA-tagged CREBBP expressed in bacteria by BROMOscan method
[24] = biological target: Histone acetyltransferase KAT2A (Homo sapiens, UniProt Q92830); assay: Binding affinity to human partial length DNA-tagged GCN5L2 expressed in bacteria by BROMOscan method
Protein polybromo-1 [25] = biological target: T5, Protein polybromo-1 (Homo sapiens, UniProt Q86U86); assay: Binding affinity to human partial length DNA-tagged PBRM1 BD1 expressed in bacteria by BROMOscan method
Protein polybromo-1 [26] = biological target: T5, Protein polybromo-1; assay: Binding affinity to human partial length DNA-tagged PBRM1 BD5 expressed in bacteria by BROMOscan method
[27] = biological target: Histone acetyltransferase KAT2B (Homo sapiens, UniProt Q92831); assay: Binding affinity to human partial length DNA-tagged PCAF expressed in mammalian expression system by BROMOscan method
[28] = biological target: SWI/SNF-related matrix-associated actin-dependent regulator of chromatin subfamily A member 2 (Homo sapiens, UniProt P51531); assay: Binding affinity to human partial length DNA-tagged SMARCA2 expressed in bacteria by BROMOscan method
[29] = biological target: SWI/SNF-related matrix-associated actin-dependent regulator of chromatin subfamily A member 4 (Homo sapiens, UniProt P51532); assay: Binding affinity to human partial length DNA-tagged SMARCA4 expressed in bacteria by BROMOscan method
[30] = biological target: Transcription initiation factor TFIID subunit 1-like (Homo sapiens, UniProt Q8IZX4); assay: Binding affinity to human partial length DNA-tagged TAF1L BD2 expressed in bacteria by BROMOscan method
[31] = biological target: T4, Bromodomain-containing protein 4; assay: Selectivity ratio of Kd for human partial length DNA-tagged BRD4 isoform long BD1 to Kd for human partial length DNA-tagged BRD4 isoform long BD2
[32] = biological target: T1, Bromodomain-containing protein 2; assay: Selectivity ratio of Kd for human partial length DNA-tagged BRD2 isoform 1 BD1 to Kd for human partial length DNA-tagged BRD2 isoform 1 BD2
[33] = biological target: T2, Bromodomain-containing protein 3; assay: Selectivity ratio of Kd for human partial length DNA-tagged BRD3 BD1 to Kd for human partial length DNA-tagged BRD3 BD2
Homo sapiens [34] = species on record: Homo sapiens; assay: Selectivity ratio of IC50 for human BRD2 BD1 to IC50 for human BRD2 BD2
Homo sapiens [35] = species on record: Homo sapiens; assay: Selectivity ratio of IC50 for BRD3 BD1 (unknown origin) to IC50 for BRD3 BD2 (unknown origin)
Homo sapiens [36] = species on record: Homo sapiens; assay: Selectivity ratio of IC50 for BRDT BD1 (unknown origin) to IC50 for BRDT BD2 (unknown origin)
[37] = biological target: Bromodomain-containing protein 4 (Homo sapiens, UniProt O60885, Y390A)
[38] = biological target: Bromodomain-containing protein 4 (Homo sapiens, UniProt O60885, Y97A)
physchem = details: buffer, pH 7.4
Description: Chromatographic hydrophobicity index, log D of the compound at pH 7.4 by HPLC method

T5 sequence (Q86U86 whole entry): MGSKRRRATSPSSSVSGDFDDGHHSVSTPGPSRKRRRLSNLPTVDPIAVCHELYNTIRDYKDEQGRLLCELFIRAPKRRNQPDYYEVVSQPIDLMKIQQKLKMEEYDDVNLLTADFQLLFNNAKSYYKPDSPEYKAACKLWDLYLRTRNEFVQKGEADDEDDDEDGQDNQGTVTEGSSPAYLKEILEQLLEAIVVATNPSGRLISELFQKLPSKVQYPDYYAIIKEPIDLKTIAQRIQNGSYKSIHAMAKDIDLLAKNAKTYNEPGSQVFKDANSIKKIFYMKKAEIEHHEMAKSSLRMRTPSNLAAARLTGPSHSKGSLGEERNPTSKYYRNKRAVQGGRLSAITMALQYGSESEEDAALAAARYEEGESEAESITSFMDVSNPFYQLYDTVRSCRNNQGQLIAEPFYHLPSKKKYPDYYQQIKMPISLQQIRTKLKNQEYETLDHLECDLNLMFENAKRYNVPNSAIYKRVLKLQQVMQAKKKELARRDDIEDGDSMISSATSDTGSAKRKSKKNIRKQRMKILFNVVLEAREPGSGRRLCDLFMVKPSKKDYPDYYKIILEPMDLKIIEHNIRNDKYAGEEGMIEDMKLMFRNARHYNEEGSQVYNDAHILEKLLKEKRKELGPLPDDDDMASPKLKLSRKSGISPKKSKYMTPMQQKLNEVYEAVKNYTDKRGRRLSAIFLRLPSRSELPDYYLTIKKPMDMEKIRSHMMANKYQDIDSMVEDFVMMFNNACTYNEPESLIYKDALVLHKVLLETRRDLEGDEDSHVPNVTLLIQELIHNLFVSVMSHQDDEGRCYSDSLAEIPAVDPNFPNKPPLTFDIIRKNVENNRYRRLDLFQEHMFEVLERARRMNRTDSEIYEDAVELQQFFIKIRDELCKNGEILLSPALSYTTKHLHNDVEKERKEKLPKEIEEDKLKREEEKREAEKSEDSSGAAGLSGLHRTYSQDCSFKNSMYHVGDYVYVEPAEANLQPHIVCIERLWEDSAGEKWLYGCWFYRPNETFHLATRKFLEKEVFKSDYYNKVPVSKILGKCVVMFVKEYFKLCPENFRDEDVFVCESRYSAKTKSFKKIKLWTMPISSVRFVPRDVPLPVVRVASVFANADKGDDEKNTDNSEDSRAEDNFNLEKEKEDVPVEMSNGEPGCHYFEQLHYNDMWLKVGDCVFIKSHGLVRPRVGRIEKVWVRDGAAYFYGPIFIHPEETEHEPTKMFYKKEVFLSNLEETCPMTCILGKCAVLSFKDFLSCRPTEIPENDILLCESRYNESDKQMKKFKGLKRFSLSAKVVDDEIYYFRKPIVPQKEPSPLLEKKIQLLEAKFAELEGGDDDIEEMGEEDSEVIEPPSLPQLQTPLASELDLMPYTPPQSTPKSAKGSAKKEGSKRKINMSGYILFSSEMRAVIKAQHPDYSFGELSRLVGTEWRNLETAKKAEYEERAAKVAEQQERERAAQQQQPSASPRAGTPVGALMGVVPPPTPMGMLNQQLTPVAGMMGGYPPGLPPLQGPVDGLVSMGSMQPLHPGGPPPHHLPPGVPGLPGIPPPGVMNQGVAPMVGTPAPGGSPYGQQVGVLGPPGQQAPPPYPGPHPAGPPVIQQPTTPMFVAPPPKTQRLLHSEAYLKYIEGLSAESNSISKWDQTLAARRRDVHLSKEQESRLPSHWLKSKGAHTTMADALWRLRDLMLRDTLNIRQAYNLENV
Chain of ATPase family AAA domain-containing protein 2 (Q6PL18 whole entry, the tested form may be a part): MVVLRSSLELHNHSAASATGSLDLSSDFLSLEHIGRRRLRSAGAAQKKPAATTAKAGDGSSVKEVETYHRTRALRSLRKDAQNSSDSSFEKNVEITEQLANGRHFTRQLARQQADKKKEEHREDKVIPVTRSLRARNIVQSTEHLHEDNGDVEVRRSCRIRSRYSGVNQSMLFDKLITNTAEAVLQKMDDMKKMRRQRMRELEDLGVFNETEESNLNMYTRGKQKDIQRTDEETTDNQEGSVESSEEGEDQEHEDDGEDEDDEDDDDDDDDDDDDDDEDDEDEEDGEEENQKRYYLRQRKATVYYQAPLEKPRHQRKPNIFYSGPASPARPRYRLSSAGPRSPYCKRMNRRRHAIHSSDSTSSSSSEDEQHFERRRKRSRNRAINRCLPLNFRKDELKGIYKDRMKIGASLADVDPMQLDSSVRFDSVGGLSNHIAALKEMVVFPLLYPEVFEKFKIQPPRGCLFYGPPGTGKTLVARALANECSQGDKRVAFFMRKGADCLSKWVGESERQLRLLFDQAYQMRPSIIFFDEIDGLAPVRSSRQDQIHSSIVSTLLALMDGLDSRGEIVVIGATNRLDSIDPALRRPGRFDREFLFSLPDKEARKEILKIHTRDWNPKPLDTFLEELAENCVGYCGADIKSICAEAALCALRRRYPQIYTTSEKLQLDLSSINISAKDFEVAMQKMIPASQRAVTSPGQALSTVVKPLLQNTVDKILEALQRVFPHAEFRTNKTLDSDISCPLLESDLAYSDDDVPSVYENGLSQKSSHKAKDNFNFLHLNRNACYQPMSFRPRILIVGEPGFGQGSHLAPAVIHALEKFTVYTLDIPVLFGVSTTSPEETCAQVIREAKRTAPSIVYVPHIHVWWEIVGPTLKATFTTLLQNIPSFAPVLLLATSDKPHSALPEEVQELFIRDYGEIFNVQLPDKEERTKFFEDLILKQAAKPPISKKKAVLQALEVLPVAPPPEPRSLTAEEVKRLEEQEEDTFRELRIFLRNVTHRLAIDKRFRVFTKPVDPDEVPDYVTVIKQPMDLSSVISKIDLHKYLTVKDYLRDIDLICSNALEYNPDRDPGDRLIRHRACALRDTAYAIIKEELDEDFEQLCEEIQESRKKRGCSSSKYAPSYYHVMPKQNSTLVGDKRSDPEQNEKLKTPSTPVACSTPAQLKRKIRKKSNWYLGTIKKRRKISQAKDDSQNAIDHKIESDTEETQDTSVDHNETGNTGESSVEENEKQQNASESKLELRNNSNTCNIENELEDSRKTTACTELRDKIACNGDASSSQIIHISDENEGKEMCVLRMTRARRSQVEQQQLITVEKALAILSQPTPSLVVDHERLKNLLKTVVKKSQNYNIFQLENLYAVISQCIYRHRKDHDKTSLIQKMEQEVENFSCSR

Work on CC(=O)N1c2ccc(C3=CCNCC3)cc2N(Cc2ccccc2CO)C[C@@H]1C1CC1 yielded an IC50 [1] of 2510 nM, an IC50 [2] of 316 nM and an IC50 [3] of 1260 nM. The IC50 [4] was 50.1 nM, the IC50 [5] was 200 nM and the Papp [6] was 11 ×10⁻⁶ cm/s. For the same compound, the solubility [7] was ≥ 418 µM, the IC50 (Blood) was 1000 nM and the Kd [8] was 1550 nM. The Kd [9] was 32.4 nM, the Kd [10] was 912 nM and the Kd [11] was 19.5 nM. It also gave a Kd [12] of 1860 nM, a Kd [13] of 20.9 nM and a Kd [14] of 14500 nM. For the same compound, the Kd [15] was > 30200 nM, the Kd [16] was > 30200 nM and the Kd [17] was > 30200 nM. The Kd [18] was > 30200 nM, the Kd [19] was > 30200 nM and the Kd [20] was > 30200 nM. For the same compound, the Kd [21] was > 30200 nM, the Kd [22] was > 30200 nM and the Kd [23] was > 30200 nM. The Kd (CREB-binding protein) was > 30200 nM, the Kd [24] was > 30200 nM and the Kd (Protein polybromo-1 [25]) was > 30200 nM. The Kd (Protein polybromo-1 [26]) was > 30200 nM, the Kd [27] was > 30200 nM and the Kd [28] was > 30200 nM. For the same compound, the Kd [29] was > 30200 nM, the Kd [30] was > 30200 nM and the Selectivity ratio [31] was 229. It also gave a Selectivity ratio [32] of 41, a Selectivity ratio [33] of 47 and a Ratio IC50 (Homo sapiens [34]) of 8. The Ratio IC50 (Homo sapiens [35]) was 25, the Ratio IC50 (Homo sapiens [36]) was 8 and the IC50 [37] was 3160 nM. For the same compound, the IC50 [38] was 63.1 nM and the chromatographic logD (physchem) was 2.3.
